Assays:
[1] = system: primary hepatocytes; assay: Monolayer formation of primary hepatocytes on collagen-coated plates, phase contrast microscope observation; type: cell-based, rat; settings: 50 nM staurosporine, 4 h + 20 h standing culture
Description: In order to isolate primary hepatocytes, rat livers were used and primary hepatocytes were isolated from the rat livers by ordinary methods, that was, by collagenase perfusion followed method and four subsequent low-speed centrifuge isolation. The hepatocytes were suspended in an animal cell culture medium (Williams' E medium) containing 10 nM Dexamethasone and 10% fetal bovine serum, and seeded at a cell concentration of 10×10^4 cell/cm^2 on 6-well cell culture plastic plates coated with type I collagen. For the samples to be treated, staurosporine was added to the medium to a final concentration of 50 nM. Next, they were subjected to standing culture for 4 hours at 37° C. in a CO2 incubator in the presence of 5% (v/v) CO2, and the medium was replaced with Williams' E medium containing 10 nM insulin, 10 nM dexamethasone and 0.7 μg/ml aprotinin. For the samples to be treated, staurosporine was again added to the medium to a final concentration of 50 nM. Finally, after the standing culture for 20 hours, the condition of the cells was observed through a phase contrast microscope.
The results in FIG. 1 show clearly that in the case of the hepatocytes not treated with staurosporine, cell aggregates are formed, which comprises intermittently linked patch-like discontinuous monolayers of one to tens of cells.

[2] = system: primary rat hepatocytes monolayer; assay: Dye permeation assay using transwell filters (bromphenol-blue, OD 655 nm); type: cell-based; settings: staurosporine-treated monolayer on transwell filters
Description: In parallel with Example 1 above, primary rat hepatocytes were seeded on transwell filters (3-micron pore polytetrafluoroethylene coated with type I collagen) suitable to 24-well cell culture plates, and differences in the tightness of the cell monolayer structure produced by staurosporine treatment were measured by a dye permeation assay.
In the dye permeation assay using transwell filters shown in A of FIG. 2, primary hepatocytes were seeded on transwell filters installed in wells on 24-well cell culture plates, and after the monolayer thereof was formed, 20 μl of dye (0.25% bromphenol-blue dye) was added to the upper liquid layer (medium) on the filter. 50 μl samples were then taken with the passage of time from the lower liquid layer (medium) on the filter at a constant temperature of 37° C., and absorbancy thereof (OD 655 nm) was measured.
In the results of B of FIG. 2, courses with the passage of time of dye permeation through hepatocytes layers formed by conventional methods on transwell filters are indicated by the white circles ◯, while courses of dye permeation through hepatocytes layers formed by the methods of this invention are indicated by black circles ●. […]

With `CNC1CC2OC(C)(C1OC)n1c3ccccc3c3c4c(c5c6ccccc6n2c5c31)C(=O)NC4` (stereo not drawn) [staurosporine, [9S-(9a,10b,11b,13a)]-9,13-epoxy-2,3,10,11,12,13-hexahydro-10-methoxy-9-methyl-11-(methylamino)-1H,9H-diindolo[1,2,3-gh:3′,2′,1′-1m]pyrrolo[3,4-j][1,7]benzodiazonin-1-one] the “cell aggregates formed (monolayer structure)” value ([1]; phase contrast microscope x200) was “a confluent continuous monolayer sheet of closely adjoining cells”, the “adhesion (attachment) and extension (spreading) of hepatocytes on culture substrate” value ([1]; type I collagen coated plates, versus untreated hepatocytes) was “improved” and the “permeation of dye through hepatocytes monolayer” value ([2]; 0.25% bromphenol-blue, 37° C., versus untreated cell layers) was “much less permeation of dye than that of the untreated cell layers”. The tightness between cells ([2]; concluded from dye permeation) was “greatly enhanced”.
